Source: US7030104B2, “Topical oestroprogestational compositions with a systemic effect” (Laboratoire Theramex, priority 2000, dated 2006)

Legend:
[1] = In vitro percutaneous passage on static diffusion cells (Franz cells), radiolabelled active ingredients; assay type: in vitro ADME, human; settings: 24 hours
Procedure: Percutaneous absorption is studied in vitro on static diffusion cells, called Franz cells™. The percutaneous passage of the active ingredients is evaluated by measuring the radioactivity using labelled molecules (carbon 14, tritium). The overall quantity of active ingredient absorbed is measured, at different times, in the receiving compartment.
A cutaneous biopsy is horizontally maintained between the two parts of the cell thus delimiting on both sides of the sample, two compartments: one of them epidermic, constituted by a glass cylinder, of a defined area (1.76 cm^2), placed on the upper surface of the skin; the other dermic (or receptor), on the underside of the biopsy, comprises a fixed volume reservoir with a side nozzle. The two compartments are kept in place through the intermediary of a clamp. […]
The preparations to be studied are applied in weighed quantities, using a spatula over all of the epidermal area circumscribed by the glass cone. […] The samples removed are treated with Pico-fluorine 40™ scintillation liquid and the activity measured using a liquid scintillation counter. […]
The percutaneous passage of the active ingredients is evaluated at the time of each sampling by measuring the cumulative quantity (μg) of active ingredient as a function of time.

[2] = known pharmacokinetics; Patent FR 2.776.191; cited from earlier work

change of percutaneous penetration of estradiol caused by presence of nomegestrol acetate ([1]; gel G29-299 (NAc + E2) versus TX11323 (E2 only)) | change of percutaneous passage of nomegestrol acetate caused by presence of estradiol ([1]; gel G29-299 (NAc + E2) versus G29-287 (NAc only)) | Compound | plasmatic concentration of nomegestrol acetate for clinical effectiveness (endometrial effect through bleedings) [2]
−51% | – | C[C@]12CC[C@@H]3c4ccc(O)cc4CC[C@H]3[C@@H]1CC[C@@H]2O [estradiol, 17beta estradiol] | –
– | +39% | CC(=O)O[C@]1(C(C)=O)CC[C@H]2[C@@H]3C=C(C)C4=CC(=O)CC[C@@H]4[C@H]3CC[C@@]21C [nomegestrol acetate] | ≥ 0.7 ng/mL
